Results from patent publication US9247759B2, “Identification of human T2R receptors that respond to bitter compounds that elicit the bitter taste in compositions, and the use thereof in assays to identify compounds that inhibit (block) bitter taste in compositions and use thereof” (SENOMYX, INC., priority 2007, dated 2016).
Read-outs that look alike come from different tables or passages of the source.

Tests used:
hT2R61 = hT2R61 (Homo sapiens (Human), UniProt P59537); experiment: hT2R panel inhibition, transient HEK293 G16g44, agonist Aristolochic Acid 25 nM; assay type: cell-based; conditions: HEK293, compound at 25 μM
Chain of hT2R61 (P59537 whole entry): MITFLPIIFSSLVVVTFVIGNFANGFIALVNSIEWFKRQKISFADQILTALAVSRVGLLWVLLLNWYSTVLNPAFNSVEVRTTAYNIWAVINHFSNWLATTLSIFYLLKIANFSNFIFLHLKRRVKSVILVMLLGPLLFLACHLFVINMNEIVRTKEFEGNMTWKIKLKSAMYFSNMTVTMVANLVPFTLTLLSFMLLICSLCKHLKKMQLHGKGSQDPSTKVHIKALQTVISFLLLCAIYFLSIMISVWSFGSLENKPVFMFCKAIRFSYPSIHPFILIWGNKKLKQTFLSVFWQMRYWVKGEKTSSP
Procedure: (§1) Specifically, in order to evaluate the inhibitory selectivity of the Compound C compound, this compound was tested against 22 human T2Rs which were deorphaned by Senomyx. These receptors and the bitter ligands that activate these human T2Rs are reported in earlier patent applications which are incorporated by reference herein. These 22 human T2Rs are hT2R1, 3, 4, 5, 7, 8, 9, 10, 13, 14, 16, 44, 51, 54, 55, 61, 63, 64, 65, 67, 71 and 75. The amino acid and nucleic acid sequences of all of these T2Rs may be found in these earlier patent applications. These human T2Rs were each individually transiently transfected into HEK293 cells that stably express the promiscuous G protein G16g44 and functional assays were effected using these receptors as disclosed in these same patent applications. […] The ligands were used at EC80 concentration levels. The list of bitter ligands utilized and the tested ligand concentrations are contained in Table 5 of this example.
(§2) Relating to the foregoing, FIG. 5 contains experimental results wherein Compound C was tested with different agonist compounds. The inhibition activity is represented by the reduction of receptor activity in the presence of Compound C. […] These 13 hT2Rs are hT2R3, 7, 10, 14, 16, 44, 51, 55, 61, 63, 64, 65, and 71.

hT2R3 = hT2R3 (Homo sapiens (Human), UniProt Q9NYW6); experiment: hT2R panel inhibition, transient HEK293 G16g44, agonist Chloroquine pH6.5 50 μM; assay type: cell-based; conditions: HEK293, compound at 25 μM; receptor activated to EC80 with the corresponding agonist; read-out: screening result against bitter receptor 3
Chain of hT2R3 (Q9NYW6 whole entry): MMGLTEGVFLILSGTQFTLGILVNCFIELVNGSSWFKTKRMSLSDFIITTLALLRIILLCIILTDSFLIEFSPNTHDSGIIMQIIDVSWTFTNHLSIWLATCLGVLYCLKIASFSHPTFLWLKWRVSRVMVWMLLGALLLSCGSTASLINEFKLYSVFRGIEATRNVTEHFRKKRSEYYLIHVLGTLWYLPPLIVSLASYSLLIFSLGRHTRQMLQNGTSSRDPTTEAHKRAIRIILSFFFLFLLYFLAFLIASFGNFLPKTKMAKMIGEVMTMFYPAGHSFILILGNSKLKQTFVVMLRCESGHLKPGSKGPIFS
Procedure: as §1, §2

hT2R64 = hT2R64 (Homo sapiens (Human), UniProt P59538); experiment: hT2R panel inhibition, transient HEK293 G16g44, agonist Aristolochic Acid 1 μM; assay type: cell-based; conditions: HEK293, compound at 25 μM
Chain of hT2R64 (P59538 whole entry): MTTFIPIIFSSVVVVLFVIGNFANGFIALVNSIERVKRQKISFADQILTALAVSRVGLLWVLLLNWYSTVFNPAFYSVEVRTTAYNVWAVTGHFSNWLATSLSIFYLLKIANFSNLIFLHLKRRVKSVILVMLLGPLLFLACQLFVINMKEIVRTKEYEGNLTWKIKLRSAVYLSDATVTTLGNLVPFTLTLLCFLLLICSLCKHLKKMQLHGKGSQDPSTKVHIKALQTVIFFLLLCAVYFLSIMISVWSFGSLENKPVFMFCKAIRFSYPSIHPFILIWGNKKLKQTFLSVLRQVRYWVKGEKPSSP
Procedure: as §1, §2

hT2R71 = hT2R71 (Homo sapiens (Human), UniProt P59536); experiment: hT2R panel inhibition, transient HEK293 G16g44, agonist Picric Acid 10 μM; assay type: cell-based; conditions: HEK293, compound at 25 μM; receptor activated to EC80 with the corresponding agonist; read-out: screening result against bitter receptor 71
Chain of hT2R71 (P59536 whole entry): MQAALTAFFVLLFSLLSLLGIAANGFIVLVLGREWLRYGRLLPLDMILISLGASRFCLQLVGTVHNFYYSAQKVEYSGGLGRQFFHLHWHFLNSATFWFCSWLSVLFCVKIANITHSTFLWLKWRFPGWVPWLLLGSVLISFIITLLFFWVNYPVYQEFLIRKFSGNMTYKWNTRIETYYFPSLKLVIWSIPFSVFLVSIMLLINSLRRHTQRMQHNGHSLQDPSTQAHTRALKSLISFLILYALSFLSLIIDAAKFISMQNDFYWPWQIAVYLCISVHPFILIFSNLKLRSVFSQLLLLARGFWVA
Procedure: as §1, §2

hT2R44 = experiment: hT2R panel inhibition, transient HEK293 G16g44, agonist Denatonium 0.5 μM; assay type: cell-based, human; conditions: compound at 25 μM; receptor activated to EC80 with the corresponding agonist
Procedure: as §1, §2

hT2R14 [1] = target: T1, hT2R14 (Homo sapiens (Human), UniProt Q9NYV8); experiment: hT2R panel inhibition, transient HEK293 G16g44, agonist Aristolochic Acid 2 μM; assay type: cell-based; conditions: HEK293, compound at 25 μM
T1 sequence (Q9NYV8 whole entry): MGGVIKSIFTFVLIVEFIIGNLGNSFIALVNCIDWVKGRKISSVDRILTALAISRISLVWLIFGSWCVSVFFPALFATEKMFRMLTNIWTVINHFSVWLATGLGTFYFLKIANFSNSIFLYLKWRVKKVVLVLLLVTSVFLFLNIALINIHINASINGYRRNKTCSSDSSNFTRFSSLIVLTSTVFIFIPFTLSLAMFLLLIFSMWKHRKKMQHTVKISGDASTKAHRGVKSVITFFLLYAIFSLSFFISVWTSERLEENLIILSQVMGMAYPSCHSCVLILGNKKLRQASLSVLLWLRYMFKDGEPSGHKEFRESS
Procedure: as §1

hT2R63 = experiment: hT2R panel inhibition, transient HEK293 G16g44, agonist Caffeine 1 mM or Andrographolide 100 μM; assay type: cell-based, human; conditions: compound at 25 μM; for screening result against bitter receptor 63: receptor activated to EC80 with the corresponding agonist
Procedure: as §1, §2

hT2R14 [2] = target: T1, hT2R14; experiment: hT2R14 antagonist high-throughput FLIPR assay, stable cell line with G16g44, agonist aristolochic acid; assay type: cell-based
Procedure: The inventors also used the automated fluorimetric […] system FLIPR using a slightly different protocol. A HEK293 cell line stably expressing G16gust44 was transfected with a hT2R expression plasmid, 24 hours later, the cells are loaded and analyzed on FLIPR.
After a ligand is identified for a particular hT2R, a HEK293 cell line stably expressing both the hT2R and G16gust44 are generated, facilitating future screening assays to identify other ligands that activate the particular hT2R or which modulate (block or enhance) the activation of this hT2R by another bitter ligand such as a bitter compound contained in coffee. This avoids the need for transient transfection.
To identify antagonists, cell lines stably expressing hT2R8 and hT2R14, respectively, together with the promiscuous chimeric G16g44 protein were generated as described in previous patent applications. A high-throughput assay was established using the stable cell lines and FLIPR (Fluorescent Imaging Plate Reader). An agonist of hT2R8 or hT2R14 was used to activate the receptors up to 70-80% of their respective maximal activity. For hT2R8, the agonist used was andrographolide (200 […]); for hT2R14, it was aristolochic acid (3 μM). To identify antagonists, compounds with diverse chemical structures were added together with the agonist.

hT2R55 = experiment: hT2R panel inhibition, transient HEK293 G16g44, agonist Cinchonine 150 μM; assay type: cell-based, human; conditions: compound at 25 μM; receptor activated to EC80 with the corresponding agonist
Procedure: as §1, §2

hT2R5 = hT2R5 (Homo sapiens (Human), UniProt Q9NYW4); experiment: hT2R panel inhibition, transient HEK293 G16g44, agonist Picoline 10 mM; assay type: cell-based; conditions: HEK293, compound at 25 μM; receptor activated to EC80 with the corresponding agonist; read-out: screening result against bitter receptor 5
Chain of hT2R5 (Q9NYW4 whole entry): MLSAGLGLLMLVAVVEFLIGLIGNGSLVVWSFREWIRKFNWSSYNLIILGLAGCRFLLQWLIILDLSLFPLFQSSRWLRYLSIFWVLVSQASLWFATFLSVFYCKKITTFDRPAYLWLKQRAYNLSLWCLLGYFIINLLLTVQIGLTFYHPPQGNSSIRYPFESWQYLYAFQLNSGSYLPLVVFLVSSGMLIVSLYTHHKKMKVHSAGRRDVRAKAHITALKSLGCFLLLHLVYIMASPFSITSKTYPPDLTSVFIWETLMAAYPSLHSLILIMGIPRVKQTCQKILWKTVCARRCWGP
Procedure: as §1, §2

hT2R16 = hT2R16 (Homo sapiens (Human), UniProt Q9NYV7); experiment: hT2R panel inhibition, transient HEK293 G16g44, agonist Salicin 1 mM; assay type: cell-based; conditions: HEK293, compound at 25 μM; receptor activated to EC80 with the corresponding agonist; read-out: screening result against bitter receptor 16
Chain of hT2R16 (Q9NYV7 whole entry): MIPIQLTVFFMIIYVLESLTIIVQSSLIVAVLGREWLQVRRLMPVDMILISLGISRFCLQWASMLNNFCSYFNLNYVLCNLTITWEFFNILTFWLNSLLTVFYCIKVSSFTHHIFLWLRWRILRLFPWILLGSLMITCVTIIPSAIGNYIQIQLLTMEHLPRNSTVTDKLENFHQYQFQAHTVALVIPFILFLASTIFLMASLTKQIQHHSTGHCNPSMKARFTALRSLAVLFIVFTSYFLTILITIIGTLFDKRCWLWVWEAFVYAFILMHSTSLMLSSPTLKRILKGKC
Procedure: as §1, §2

hT2R10 = hT2R10 (Homo sapiens (Human), UniProt Q9NYW0); experiment: hT2R panel inhibition, transient HEK293 G16g44, agonist Strychnine 50 μM; assay type: cell-based; conditions: HEK293, read-out: screening result against bitter receptor 10, compound at 25 μM; receptor activated to EC80 with the corresponding agonist
Chain of hT2R10 (Q9NYW0 whole entry): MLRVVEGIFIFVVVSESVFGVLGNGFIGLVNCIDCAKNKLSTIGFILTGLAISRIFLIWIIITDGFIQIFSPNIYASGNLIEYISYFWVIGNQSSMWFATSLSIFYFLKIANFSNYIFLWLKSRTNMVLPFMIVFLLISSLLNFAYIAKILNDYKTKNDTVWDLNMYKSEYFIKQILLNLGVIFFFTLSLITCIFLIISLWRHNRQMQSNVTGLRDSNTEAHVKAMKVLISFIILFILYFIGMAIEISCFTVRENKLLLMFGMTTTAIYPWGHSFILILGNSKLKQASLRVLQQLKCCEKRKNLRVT
Procedure: as §1, §2

[3] = receptor activated to EC80 with the corresponding agonist, read-out: screening result against bitter receptor 61
[4] = receptor activated to EC80 with the corresponding agonist, read-out: screening result against bitter receptor 64
[5] = receptor activated to EC80 with agonist, read-out: inhibition of bitter receptor 14
[6] = read-out: IC50 on hT2R14 bitter receptor
[7] = receptor activated to EC80 with the corresponding agonist, read-out: screening result against bitter receptor 14

SMILES	inhibition at 25 µM (hT2R61; [3]) [%]	inhibition at 25 µM (hT2R3) [%]	inhibition at 25 µM (hT2R64; [4]) [%]	inhibition at 25 µM (hT2R71) [%]	screening result against bitter receptor 44 (hT2R44)	screening result against bitter receptor 63 (hT2R63)	other results
COc1ccc(CN(Cc2ccccc2)C(=O)Nc2ccc(C(=O)O)cc2)cc1 [Example 5-94, 4-(3-benzyl-3-(4-methoxybenzyl)ureido)benzoic acid]	20 to 40	20 to 40	60 to 80	20 to 40	++ (40% to 60% inhibition = ++)		
N#C/C(=C\c1ccco1)C(=O)Nc1nnc(-c2ccccc2)s1 [Example 6-2, (E)-2-cyano-3-(furan-2-yl)-N-(5-phenyl-1,3,4-thiadiazol-2-yl)acrylamide]							inhibition at 25 µM (hT2R61; receptor activated to EC80 with agonist, read-out: inhibition of bitter receptor 61): 40 to 60%; inhibition at 25 µM (hT2R14 [1]; [5]): > 80%; inhibition of bitter receptor 63 (hT2R63; receptor activated to EC80 with agonist): + (20% to 40% inhibition = +); IC50 (hT2R14 [2]; [6]): 0.499 µM; inhibition at 25 µM (hT2R64; receptor activated to EC80 with agonist, read-out: inhibition of bitter receptor 64): 20 to 40%
COc1ccc(CN(Cc2cccs2)S(=O)(=O)c2ccc(C(=O)O)cc2)cc1 [Example 5-61, 4-(N-(4-methoxybenzyl)-N-(thiophen-2-ylmethyl)sulfamoyl)benzoic acid]	40 to 60		20 to 40	20 to 40		++++ (80% or greater inhibition = ++++)	screening result against bitter receptor 55 (hT2R55): + (20% to 40% inhibition = +); inhibition at 25 µM (hT2R5): 20 to 40%
COc1ccc(CNS(=O)(=O)c2ccc(C(=O)O)cc2)cc1 [Example 5-56, 4-(N-(4-methoxybenzyl)sulfamoyl)benzoic acid]		20 to 40	20 to 40				
COc1ccc(CN(Cc2ccc(C(=O)O)cc2)S(=O)(=O)c2ccc(O)cc2)cc1 [Example 5-44, 4-((4-hydroxy-N-(4-methoxybenzyl)phenylsulfonamido)methyl)-benzoic acid]	> 80	20 to 40	40 to 60	40 to 60	++ (40% to 60% inhibition = ++)	++++ (80% or greater inhibition = ++++)	inhibition at 25 µM (hT2R14 [1]; [7]): > 80%; screening result against bitter receptor 55 (hT2R55): + (20% to 40% inhibition = +); IC50 (hT2R14 [2]; [6]): 3.43 µM
COc1ccc(CN(C)S(=O)(=O)c2ccc(C(=O)O)cc2)cc1 [Example 5-29, 4-(N-(4-methoxybenzyl)-N-methylsulfamoyl)benzoic acid]			40 to 60			+++ (60% to 80% inhibition = +++)	
COc1ccc(CN(Cc2cccc(C)c2)S(=O)(=O)c2ccc(C(=O)O)cc2)cc1 [Example 5-65, 4-(N-(4-methoxybenzyl)-N-(3-methylbenzyl)sulfamoyl)benzoic acid]		20 to 40					
COc1ccc(CN(Cc2ccccc2)C(=O)c2ccc(C(=O)O)cc2)cc1 [Example 5-49, 4-(benzyl(4-methoxybenzyl)carbamoyl)benzoic acid]	60 to 80	20 to 40	40 to 60	20 to 40	+ (20% to 40% inhibition = +)	+ (20% to 40% inhibition = +)	screening result against bitter receptor 55 (hT2R55): ++++ (80% or greater inhibition = ++++)
COc1ccc(C(NS(=O)(=O)c2ccc(C(=O)O)cc2)c2ccccc2)cc1 (stereo not drawn) [Example 5-97, 4-(N-((4-methoxyphenyl)(phenyl)methyl)sulfamoyl) benzoic acid]	20 to 40		20 to 40		+ (20% to 40% inhibition = +)	+++ (60% to 80% inhibition = +++)	inhibition at 25 µM (hT2R14 [1]; [7]): 20 to 40%; inhibition at 25 µM (hT2R16): 60 to 80%
COc1ccc(CN(Cc2cccc(C(=O)O)c2)S(=O)(=O)c2ccc(C(=O)O)cc2)cc1 [Example 5-82, 3-((4-carboxy-N-(4-methoxybenzyl)phenylsulfonamido)methyl) benzoic acid]	> 80		20 to 40	20 to 40		++++ (80% or greater inhibition = ++++)	
COc1ccc(CN(Cc2ccc(C(=O)O)cc2)S(=O)(=O)c2ccc(C(=O)O)cc2)cc1 [Example 5-38, 4-((4-carboxy-N-(4-methoxybenzyl)phenylsulfonamido)methyl)-benzoic acid]	> 80		20 to 40	20 to 40		++++ (80% or greater inhibition = ++++)	
COc1ccc(CN(Cc2ccncc2)S(=O)(=O)c2ccc(C(=O)O)cc2)cc1 [Example 5-86, 4-(N-(4-methoxybenzyl)-N-(pyridin-4-ylmethyl)sulfamoyl)benzoic acid]	60 to 80				+ (20% to 40% inhibition = +)	+++ (60% to 80% inhibition = +++)	inhibition at 25 µM (hT2R14 [1]; [7]): 20 to 40%
O=C(O)c1ccc(CN(Cc2ccc(F)cc2)S(=O)(=O)c2ccc(O)cc2)cc1 [Example 5-107, 4-((N-(4-fluorobenzyl)-4-hydroxyphenylsulfonamido)methyl)benzoic acid]	> 80		60 to 80	20 to 40	+ (20% to 40% inhibition = +)	+++ (60% to 80% inhibition = +++)	inhibition at 25 µM (hT2R14 [1]; [7]): 60 to 80%; screening result against bitter receptor 55 (hT2R55): + (20% to 40% inhibition = +)
COc1ccc(CN(Cc2ccccc2)S(=O)(=O)c2ccc(CC(=O)O)cc2)cc1 [Example 5-47, 2-(4-(N-benzyl-N-(4-methoxybenzyl)sulfamoyl)phenyl)acetic acid]	60 to 80	20 to 40		20 to 40	+ (20% to 40% inhibition = +)	+ (20% to 40% inhibition = +)	
Cc1cccc(C)c1NS(=O)(=O)c1ccc2c(c1)c(=O)n(C)c(=O)n2C [Example 6-8, N-(2,6-dimethylphenyl)-1,3-dimethyl-2,4-dioxo-1,2,3,4-tetrahydroquinazoline-6-sulfonamide]							inhibition at 25 µM (hT2R14 [1]; [5]): 20 to 40%
COc1ccc(CN(Cc2ccccc2)S(=O)(=O)c2ccccc2C(=O)O)cc1 [Example 5-60, 2-(N-benzyl-N-(4-methoxybenzyl)sulfamoyl)benzoic acid]			20 to 40				
COc1ccc(CN(Cc2ccccc2)S(=O)(=O)CCC(=O)O)cc1 [Example 5-57, 3-(N-benzyl-N-(4-methoxybenzyl)sulfamoyl)propanoic acid]	> 80	20 to 40	40 to 60				screening result against bitter receptor 55 (hT2R55): +++ (60% to 80% inhibition = +++); inhibition at 25 µM (hT2R10): 20 to 40%
Nc1ccc(S(=O)(=O)N(Cc2ccc(F)cc2)CC2CCC(C(=O)O)CC2)cc1 (stereo not drawn) [Example 5-125, 4-((4-amino-N-(4-fluorobenzyl)phenylsulfonamido)methyl) cyclohexanecarboxylic acid]							IC50 (hT2R14 [2]; Table C, read-out: hT2R14 IC50): 1.65 µM
